{"source": "paper PMC11191402", "about": "“High-Affinity NIR-Fluorescent Inhibitors for Tumor Imaging via Carbonic Anhydrase IX” (Bioconjugate Chemistry, 2024)", "key": {"human recombinant CAIV": {"molecular_target": "T1, human recombinant CAIV (Homo sapiens, UniProt P22748)", "T1 construct": "Most isozymes were truncated, and only the catalytic domains of the proteins were produced; made in house; host or cells: bacterial expression system", "T1 sequence (P22748 21-285 limits assumed)": "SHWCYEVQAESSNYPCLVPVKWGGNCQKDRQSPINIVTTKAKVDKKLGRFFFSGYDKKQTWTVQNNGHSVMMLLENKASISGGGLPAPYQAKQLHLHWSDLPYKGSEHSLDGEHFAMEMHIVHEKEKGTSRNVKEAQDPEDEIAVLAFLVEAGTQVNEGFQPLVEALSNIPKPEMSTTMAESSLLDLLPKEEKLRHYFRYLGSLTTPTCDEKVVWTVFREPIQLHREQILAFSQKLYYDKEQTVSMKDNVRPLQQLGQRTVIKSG", "parameters": "method as in PMID 36271018", "details": "FTSA, 37 °C, pH 7.0; cited from earlier work"}, "human recombinant CAII": {"molecular_target": "T2, human recombinant CAII (Homo sapiens, UniProt P00918)", "T2 construct": "made in house; host or cells: bacterial expression system", "parameters": "method as in PMID 36271018", "details": "FTSA, 37 °C, pH 7.0; cited from earlier work"}, "human recombinant CAVA": {"molecular_target": "T3, human recombinant CAVA (Homo sapiens, UniProt P35218)", "T3 construct": "Most isozymes were truncated, and only the catalytic domains of the proteins were produced; made in house; host or cells: bacterial expression system", "T3 sequence (P35218 39-296 limits assumed)": "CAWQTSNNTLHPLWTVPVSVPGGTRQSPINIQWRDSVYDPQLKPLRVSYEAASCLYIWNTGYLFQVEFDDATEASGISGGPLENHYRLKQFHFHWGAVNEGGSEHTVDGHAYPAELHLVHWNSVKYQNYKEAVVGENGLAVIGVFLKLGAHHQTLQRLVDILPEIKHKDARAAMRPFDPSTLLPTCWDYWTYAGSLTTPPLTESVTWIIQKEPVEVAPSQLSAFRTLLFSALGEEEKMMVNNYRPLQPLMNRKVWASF", "parameters": "method as in PMID 36271018", "details": "FTSA, 37 °C, pH 7.0; cited from earlier work"}, "human recombinant CAVI": {"molecular_target": "T4, human recombinant CAVI (Homo sapiens, UniProt P23280)", "T4 construct": "Most isozymes were truncated, and only the catalytic domains of the proteins were produced; made in house; host or cells: bacterial expression system", "T4 sequence (P23280 21-278 limits assumed)": "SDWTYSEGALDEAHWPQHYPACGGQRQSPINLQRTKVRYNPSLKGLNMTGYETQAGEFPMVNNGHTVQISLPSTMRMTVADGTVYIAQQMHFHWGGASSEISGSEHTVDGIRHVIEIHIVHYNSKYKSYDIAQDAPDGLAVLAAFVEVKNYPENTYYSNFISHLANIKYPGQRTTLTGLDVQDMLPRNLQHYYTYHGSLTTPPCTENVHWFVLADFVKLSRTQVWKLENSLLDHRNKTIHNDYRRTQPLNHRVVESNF", "parameters": "method as in PMID 36271018", "details": "FTSA, 37 °C, pH 7.0; cited from earlier work"}, "human recombinant CAVII": {"molecular_target": "T5, human recombinant CAVII (Homo sapiens, UniProt P43166)", "T5 construct": "made in house; host or cells: bacterial expression system", "T5 sequence (P43166 whole entry)": "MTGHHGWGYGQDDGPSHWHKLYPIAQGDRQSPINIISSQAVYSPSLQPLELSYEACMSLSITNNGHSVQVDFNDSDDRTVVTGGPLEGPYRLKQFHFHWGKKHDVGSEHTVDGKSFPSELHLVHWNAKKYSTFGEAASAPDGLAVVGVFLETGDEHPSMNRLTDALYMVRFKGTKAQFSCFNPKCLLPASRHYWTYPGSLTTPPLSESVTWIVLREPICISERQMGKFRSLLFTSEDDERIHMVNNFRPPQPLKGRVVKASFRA", "parameters": "method as in PMID 36271018", "details": "FTSA, 37 °C, pH 7.0; cited from earlier work"}, "human recombinant CAIII": {"molecular_target": "T6, human recombinant CAIII (Homo sapiens, UniProt P07451)", "T6 construct": "made in house; host or cells: bacterial expression system", "T6 sequence (P07451 whole entry)": "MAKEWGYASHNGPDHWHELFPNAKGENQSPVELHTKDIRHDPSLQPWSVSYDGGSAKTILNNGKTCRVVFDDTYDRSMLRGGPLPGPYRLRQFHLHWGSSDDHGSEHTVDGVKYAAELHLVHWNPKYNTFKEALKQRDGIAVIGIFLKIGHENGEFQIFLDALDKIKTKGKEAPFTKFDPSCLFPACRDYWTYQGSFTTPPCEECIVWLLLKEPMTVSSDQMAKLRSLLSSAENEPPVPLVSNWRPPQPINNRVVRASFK", "parameters": "method as in PMID 36271018", "details": "FTSA, 37 °C, pH 7.0; cited from earlier work"}, "human recombinant CAXIV": {"molecular_target": "T7, human recombinant CAXIV (Homo sapiens, UniProt Q9ULX7)", "T7 construct": "Most isozymes were truncated, and only the catalytic domains of the proteins were produced; made in house; host or cells: bacterial expression system", "T7 sequence (Q9ULX7 20-278 limits assumed)": "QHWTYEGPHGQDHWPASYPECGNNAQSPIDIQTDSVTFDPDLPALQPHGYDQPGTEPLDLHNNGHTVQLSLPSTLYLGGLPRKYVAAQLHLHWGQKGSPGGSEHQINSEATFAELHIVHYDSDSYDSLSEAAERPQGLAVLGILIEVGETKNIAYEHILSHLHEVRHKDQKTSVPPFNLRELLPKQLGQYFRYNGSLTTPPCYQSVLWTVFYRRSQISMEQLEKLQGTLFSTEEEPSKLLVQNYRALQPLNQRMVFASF", "parameters": "method as in PMID 36271018", "details": "FTSA, 37 °C, pH 7.0; cited from earlier work"}, "human recombinant CAXII": {"molecular_target": "T8, human recombinant CAXII (Homo sapiens, UniProt O43570)", "T8 construct": "Most isozymes were truncated, and only the catalytic domains of the proteins were produced; made in house; host or cells: bacterial expression system", "T8 sequence (O43570 30-289 limits assumed)": "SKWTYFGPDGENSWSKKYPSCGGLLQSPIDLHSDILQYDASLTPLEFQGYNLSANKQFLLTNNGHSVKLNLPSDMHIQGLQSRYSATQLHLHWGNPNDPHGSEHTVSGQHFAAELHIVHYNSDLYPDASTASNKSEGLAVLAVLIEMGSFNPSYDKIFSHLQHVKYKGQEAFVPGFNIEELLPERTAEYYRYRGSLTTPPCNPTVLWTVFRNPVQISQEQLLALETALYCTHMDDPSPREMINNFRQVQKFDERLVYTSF", "parameters": "method as in PMID 36271018", "details": "FTSA, 37 °C, pH 7.0; cited from earlier work"}, "human recombinant CAVB": {"molecular_target": "T9, human recombinant CAVB (Homo sapiens, UniProt Q9Y2D0)", "T9 construct": "Most isozymes were truncated, and only the catalytic domains of the proteins were produced; made in house; host or cells: bacterial expression system", "T9 sequence (Q9Y2D0 37-296 limits assumed)": "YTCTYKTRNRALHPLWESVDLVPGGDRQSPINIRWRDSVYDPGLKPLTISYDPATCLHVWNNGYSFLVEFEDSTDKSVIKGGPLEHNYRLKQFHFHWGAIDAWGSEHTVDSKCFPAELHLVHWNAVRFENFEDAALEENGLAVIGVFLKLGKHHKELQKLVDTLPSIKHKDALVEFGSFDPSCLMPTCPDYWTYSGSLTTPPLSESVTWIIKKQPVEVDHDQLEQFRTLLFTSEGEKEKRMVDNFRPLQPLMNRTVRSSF", "parameters": "method as in PMID 36271018", "details": "FTSA, 37 °C, pH 7.0; cited from earlier work"}, "[1]": {"molecular_target": "T10, CAIX expressed on cell membranes of HeLa cells (Homo sapiens, UniProt Q16790)", "T10 construct": "an open reading frame for the full-length CAIX protein (1–459 amino acids) without a tag; expressed in transfected cells; host or cells: HeLa cells transfected with pCMV-CAIX (TurboFect), normoxia", "test": "Fluorescence microscopy staining of live HeLa cells", "assay_type": "cell-based", "details": "250 nM compound; pCMV-CAIX-transfected cells, normoxia", "from_the_text": "Live HeLa cell culture was used for visualization of the NIR-fluorescent compound binding to CAIX expressed on cell membranes (Figures 3 and S2). […] Hypoxic conditions were insufficient for CAIX-specific fluorescence detection (Figure S3). Transfected cells expressed 10-fold more CAIX protein than cells grown under hypoxia, as determined by dosing the fluorescein-containing compound GZ19-32. […] We should point out that microphotographs in Figures 3 and S2 were taken at different exposure times to ensure good visualization quality. Nevertheless, all four compounds were suitable for direct visualization of CAIX expressed on transfected cell membranes.\nFor visualization of CAIX in live cells, HeLa cells were seeded in 12-well plates, and the next day they were transfected with the pCMV-CAIX plasmid to induce CAIX expression under normoxia. The TurboFect Transfection Reagent (Thermo Fisher) was used for this purpose according to manufacturer’s directions. Cells were stained and visualized next day after transfection. Nontransfected cells, grown under normoxia, were used as a control. For the induction of CAIX expression without transfection, cells were cultured under hypoxia for 3 days.\nFor cell imaging, live cells were incubated with the recombinant monoclonal antibody to CAIX (M75) (Absolute Antibody, #Ab00414–1.1) in the CO2 incubator for 30 min. The antibody stock solution (1 mg/mL) was used at a dilution of 1:150 in FluoroBright (FB)(Thermo Fisher) medium. After washing (3 × 5 min with DMEM in RT, gentle rock), cells were incubated with secondary Alexa Fluor 488 goat antimouse antibodies (2 mg/mL, Thermo Fisher), at a dilution of 1:200 in FB, in a CO2 incubator for 30 min. After washing (3 × 5 min with DMEM in RT and 2 × 1 min with PBS), cells were incubated with NIR-fluorescent inhibitors ([…] in PBS) in a CO2 incubator for 5–8 min. After washing (2 min + 2 × 1 min with PBS), PBS was replaced by FB, and 15 μL of NucBlue Live Cell Stain ReadyProbes reagent (Thermo Fisher) was added per well. After 5 min, cells were observed and photographed using an automated fluorescence microscope EVOS FL Auto (Thermo Fisher)."}}, "note": "pKd: −log10 of the molar value.", "data": [{"compound": "NS(=O)(=O)c1c(F)c(F)c(S(=O)(=O)CCC(=O)O)c(NC2CCCCCCC2)c1F", "note": "[GZ18-23, 3-((2-(Cyclooctylamino)-3,5,6-trifluoro-4-sulfamoylphenyl)sulfonyl)propanoic Acid]", "values": [{"measurement": "pKd", "setting": "human recombinant CAIV", "value": 7.00}, {"measurement": "pKd", "setting": "human recombinant CAII", "value": 6.70}, {"measurement": "pKd", "setting": "human recombinant CAVA", "value": 5.00}, {"measurement": "pKd", "setting": "human recombinant CAVI", "value": 7.00}, {"measurement": "pKd", "setting": "human recombinant CAVII", "value": 7.40}, {"measurement": "pKd", "setting": "human recombinant CAIII", "value": "≤ 3.70"}, {"measurement": "melting point", "value": "143 to 144", "unit": "°C"}, {"measurement": "pKd", "setting": "human recombinant CAXIV", "value": 8.52}, {"measurement": "pKd", "setting": "human recombinant CAXII", "value": 8.85}, {"measurement": "pKd", "setting": "human recombinant CAVB", "value": 6.70}]}, {"compound": "CC1(C)C(/C=C/C2=C(Oc3ccc(CCC(=O)O)cc3)C(=C/C=C3\\N(CCCCS(=O)(=O)[O-])c4ccccc4C3(C)C)/CCC2)=[N+](CCCCS(=O)(=O)[O-])c2ccccc21.[Na+]", "note": "[GZ21-20, Sodium 4-((Z)-2-((E)-2-(2-(4-(2-Carboxyethyl)phenoxy)-3-((E)-2-(3,3-dimethyl-1-(4-sulfonatobutyl)-3H-indol-1-ium-2-yl)vinyl)cyclohex-2-en-1-ylidene)ethylidene)-3,3-dimethylindolin-1-yl)butane-1-sulfonate]", "values": [{"measurement": "staining of HeLa cells (NIR fluorescence microscopy)", "setting": "[1]", "value": "no visual response on transfected cells"}, {"measurement": "melting point", "value": "225 to 228", "unit": "°C"}]}]}
